Test system: JurkatCD8-TK3^WT, JurkatCD8-TK3^Gln55His, and JurkatCD8-TK3^Gln55Ala cell lines
Experiment: CD69 up-regulation by peptide on C1R-HLA-B*3501 APCs, JurkatCD8-TK3 lines
Type: cell-based, human
Conditions: dose–response, peptide presented on C1R–HLA-B*3501; not depicted

With HPVGEADYFEY the “CD69 up-regulation, comparison between cell lines” value was “no significant differences in CD69 up-regulation”.

— article PMC2901058 (The Journal of Experimental Medicine, 2010)
